Measured values from patent publication US11180483B2, “Substituted reverse pyrimidine Bmi-1 inhibitors” (PTC Therapeutics, Inc., priority 2012, dated 2021).

Tested on: Bmi-1
Test: Sandwich ELISA Assay (Bmi-1 ELISA) in HT-1080 cells
Format: cell-based
Procedure: Cell Seeding and Compound Treatment (Day 1):
HT-1080 cells were seeded at 8000 cells/well (50 μL) in 96-well tissue culture plates. After the cells became adherent (3-4 hours), 2× diluted stocks of test compounds in 50 μL DMEM containing 1% DMSO (final DMSO concentration was 0.5%) were added and the plates were incubated at 37° C. under 5% CO2 for 40-48 hours.
ELISA Plate First Antibody Preparation (Day 2):
The First Antibody (Millipore Mouse, monoclonal to mouse Bmi-1, clone F6, catalog #05-637) diluted to 2 μg/mL in PBS was added (100 μL) to each well of a Nunc MaxiSorp 96-well ELISA plate. The plate was covered with a plate seal and allowed to stand overnight.
Cell Lysate Preparation (Day 3):
Fresh 1× Lysis buffer was prepared on the day of the assay as follows: 1 mM EDTA, 150 mM NaCl, 0.5% Triton-X 100, 10 mM NaF, 20 mM B-Glycerophosphate, 1 mM DTT (in PBS, pH 7.2-7.4) and 1× HALT protease inhibitor cocktail (Pierce #78410).
The 1× Lysis Buffer (40 μL) was added to each well and the plate was shaken for 5-10 minutes on an orbital shaker to allow cell lysis, then diluent (1% BSA in PBS in 0.5% NP40) (100 μL) was added to each well.
A standard curve was prepared at the following Bmi-1 concentrations: 8000, 4000, 2000, 1000, 500, 250, 125, 0 pg/mL The Bmi-1 Recombinant Protein Standard (Novus Biologicals PCGF4 Recombinant Protein (P01), catalog #H00000648-P01) used to prepare the standard curve was stored at −80° C. On first thaw, the Bmi-1 Recombinant Protein Standard was diluted to […] in Blocking Buffer (1% BSA in PBS; BSA: Fisher Scientific Catalog #1600-100). Aliquots were taken and refrozen at −80° C. The aliquots may be kept at 4° C. and reused after first thaw, but only within 1-2 weeks. The Bmi-1 Recombinant Protein Standard contains a GST-fusion tag that appears around 70 Kda on Western Blot.
The prepared ELISA plate was washed 3× with Wash Buffer (0.05% Tween-20 in PBS). The final wash was removed from the plate and the plate was blotted dry. Blocking Buffer (300 μL) (1% BSA in PBS) was added to each well. The plate was covered with a plate seal and incubated at room temperature for 1 hour. The blocked plate was washed 3× with Wash Buffer, then the final wash was removed and the plate was blotted dry. The previously prepared samples and standards were added (100 μL/well) and the plate was covered with a plate seal and incubated at 4° C. overnight.
The prepared ELISA plate was removed from 4° C., incubated at room temperature for 30 minutes, then washed and blotted dry as previously described for Day 3. The Second Antibody (Cell Signaling Rabbit anti-Bmi-1, Cat #2830) diluted to 1:600 in Blocking Buffer was added (100 μL) to each well, except as needed for background control wells. The plate was covered with a plate seal and incubated for 1.5 hrs at room temperature.
The ELISA plate was washed and blotted dry as previously described. The Third Antibody (Cell Signaling HRP conjugated anti-rabbit IgG (CellSignaling, Cat #:7074) diluted to 1:300 in Blocking Buffer was added (100 μL) to each well, except as needed for background control wells. The plate was incubated for 1 hr at room temperature.
The plate was washed and blotted dry as previously described, then prepared TMB substrate (TMB substrate kit, Pierce catalog #34021) (prepared by mixing kit reagents 1:1) (100 μL) was added per well. The plate was incubated for 20-30 minutes at room temperature in the dark, then Stop Solution (2 M sulfuric acid in water) (50 μL) was added per well. The plates were read at OD450 (experimental) and OD570 (reference).

| EC50 [nM] | SMILES |
| --- | --- |
| 10 to 100 | COc1ccc(Nc2nc(-n3c(C)nc4ccc([N+](=O)[O-])cc43)nc(N)c2F)cc1 [Cpd 233, 5-fluoro-N-(4-methoxyphenyl)-2-(2-methyl-6-nitro-1H-benzimidazol-1-yl)pyrimidine-4,6-diamine] |
| 100 to 3000 | Cc1nc2cc(F)c(F)cc2n1-c1nc(N)c(F)c(Nc2ccc(Cl)cc2)n1 [Cpd 215, N-(4-chlorophenyl)-2-(5,6-difluoro-2-methyl-1H-benzimidazol-1-yl)-5-fluoropyrimidine-4,6-diamine] |
| 1 to 10 | COc1ccc(Nc2nc(-n3c(C)nc4cc(F)ccc43)nc(N)c2F)cc1 [Cpd 282, 5-fluoro-2-(5-fluoro-2-methyl-1H-benzimidazol-1-yl)-N-(4-methoxyphenyl)pyrimidine-4,6-diamine] |
| 10 to 100 | Cc1nc2ncccc2n1-c1nc(N)c(F)c(Nc2ccc(C(F)(F)F)cc2)n1 [Cpd 137, 5-fluoro-2-(2-methyl-1H-imidazo[4,5-b]pyridin-1-yl)-N-[4-(trifluoromethyl]phenyl]pyrimidine-4,6-diamine] |
| 1 to 10 | Nc1nc(-n2c(C3CC3)nc3ccccc32)nc(Nc2ccc(OC(F)F)cc2)c1F [Cpd 121, 2-(2-cyclopropyl-1H-benzimidazol-1-yl)-N-[4-(difluoromethoxy)phenyl]-5-fluoropyrimidine-4,6-diamine] |
| 1 to 10 | COCc1nc2ccccc2n1-c1nc(N)c(F)c(Nc2ccc(OC)cc2)n1 [Cpd 218, 5-fluoro-2-[2-(methoxymethyl)-1H-benzimidazol-1-yl]-N-(4-methoxyphenyl)pyrimidine-4,6-diamine] |
| 10 to 100 | CCc1nc2ccccc2n1-c1nc(N)c(F)c(Nc2ccc(Cl)cc2)n1 [Cpd 274, N-(4-chlorophenyl)-2-(2-ethyl-1H-benzimidazol-1-yl)-5-fluoropyrimidine-4,6-diamine] |
| 100 to 3000 | CC1(c2nc3ccccc3n2-c2nc(N)cc(Nc3ccc(OC(F)F)cc3)n2)CC1 [Cpd 148, N-[4-(difluoromethoxy)phenyl]-2-[2-(1-methylcyclopropyl)-1H-benzimidazol-1-yl]pyrimidine-4,6-diamine] |
| 100 to 3000 | Cc1nc2cc(C#N)ccc2n1-c1nc(N)c(F)c(Nc2ccc(Cl)cc2)n1 [Cpd 230, 1-{4-amino-6-[(4-chlorophenyl)amino]-5-fluoropyrimidin-2-yl}-2-methyl-1H-benzimidazole-5-carbonitrile] |
| 1 to 10 | Cc1ccc(Nc2nc(-n3c(C)nc4ccc(N)cc43)nc(N)c2F)cc1 [Cpd 258, 2-(6-amino-2-methyl-1H-benzimidazol-1-yl)-5-fluoro-N-(4-methylphenyl)pyrimidine-4,6-diamine] |
| 10 to 100 | Cc1ccc(Nc2nc(-n3c(C)nc4ccc(C#N)cc43)nc(N)c2F)cc1 [Cpd 224] |
| 10 to 100 | Cc1nc2ccccc2n1-c1nc(N)cc(Nc2ccc(Cl)cc2)n1 [Cpd 209, N-(4-chlorophenyl)-2-(2-methyl-1H-benzimidazol-1-yl)pyrimidine-4,6-diamine] |

The next lines start with the molecule.

| SMILES | EC50 [nM] |
| --- | --- |
| COc1ccc(Nc2ccnc(-c3c(C(F)(F)F)nc4ccc(Br)cn34)n2)cc1 [Cpd 33, 2-[6-bromo-2-(trifluoromethyl)imidazo[1,2-a]pyridin-3-yl]-N-(4-methoxyphenyl)pyrimidin-4-amine] | 10 to 100 |
| Cc1ccc(Nc2ccnc(-c3c(C)nc4ccc(C(F)(F)F)cn34)n2)cc1 [Cpd 20, N-(4-methylphenyl)-2-[2-methyl-6-(trifluoromethyl)imidazo[1,2-a]pyridin-3-yl]pyrimidin-4-amine] | 100 to 3000 |
| FC(F)(F)c1nc2ccc(Cl)cn2c1-c1nccc(Nc2ccc(Cl)cc2)n1 [Cpd 17, N-(4-chlorophenyl)-2-[6-chloro-2-(trifluoromethyl)imidazo[1,2-a]pyridin-3-yl]pyrimidin-4-amine] | 100 to 3000 |
| FC(F)(F)c1nc2ccccn2c1-c1nccc(Nc2ccc(-n3cccn3)cc2)n1 [Cpd 39, N-[4-(1H-pyrazol-1-yl)phenyl]-2-[2-(trifluoromethyl)imidazo[1,2-a]pyridin-3-yl]pyrimidin-4-amine] | 100 to 3000 |
| Cc1cc2nc(C)n(-c3nc(N)cc(Nc4ccc(C(F)(F)F)cc4)n3)c2cc1C [Cpd 79, N-[4-(trifluoromethyl)phenyl]-2-(2,5,6-trimethyl-1H-benzimidazol-1-yl)pyrimidine-4,6-diamine] | 100 to 3000 |
| Cc1nc2ccccn2c1-c1nccc(Nc2ccc(Cl)cc2)n1 [Cpd 5, N-(4-chlorophenyl)-2-(2-methylimidazo[1,2-a]pyridin-3-yl)pyrimidin-4-amine] | 100 to 3000 |
| Cc1ccc(Nc2ccnc(-c3c(C(F)(F)F)nc4cnccn34)n2)cc1 [Cpd 62, N-(4-methylphenyl)-2-[2-(trifluoromethyl)imidazo[1,2-a]pyrazin-3-yl]pyrimidin-4-amine] | 10 to 100 |
| Cc1nn2ccccc2c1-c1nc(N)cc(Nc2ccc(C(F)(F)F)cc2)n1 [Cpd 154, 2-(2-methylpyrazolo[1,5-a]pyridin-3-yl)-N-[4-(trifluoromethyl]phenyl]pyrimidine-4,6-diamine] | 100 to 3000 |
| Cc1nc2ccccn2c1-c1nccc(Nc2ccc3c(c2)OCCO3)n1 [Cpd 2, N-(2,3-dihydro-1,4-benzodioxin-6-yl)-2-(2-methylimidazo[1,2-a]pyridin-3-yl)pyrimidin-4-amine] | 100 to 3000 |
| Cc1nc2ncccc2n1-c1nc(N)cc(Nc2ccc(C(F)(F)F)cc2)n1 [Cpd 73, 2-(2-methyl-1H-imidazo[4,5-b]pyridin-1-yl)-N-[4-(trifluoromethyl)phenyl]pyrimidine-4,6-diamine] | 10 to 100 |
| Cn1c(C(F)(F)F)c(-c2nccc(Nc3ccc(OC(F)F)cc3)n2)c2cc(Cl)ccc21 [Cpd 24, 2-[5-chloro-1-methyl-2-(trifluoromethyl)-1H-indol-3-yl]-N-[4-(difluoromethoxy)phenyl]pyrimidin-4-amine] | 100 to 3000 |
| FC(F)(F)c1nc2cnccn2c1-c1nccc(Nc2ccc(Cl)cc2)n1 [Cpd 47, N-(4-chlorophenyl)-2-[2-(trifluoromethyl)imidazo[1,2-a]pyrazin-3-yl]pyrimidin-4-amine] | 100 to 3000 |
| FC(F)Oc1ccc(Nc2ccnc(-c3c(C(F)(F)F)nc4cnccn34)n2)cc1 [Cpd 53, N-[4-(difluoromethoxy)phenyl]-2-[2-(trifluoromethyl)imidazo[1,2-a]pyrazin-3-yl]pyrimidin-4-amine] | 100 to 3000 |
| FC(F)(F)c1ccc(Nc2ccnc(-c3c(C(F)(F)F)nc4ccc(Br)cn34)n2)cc1 [Cpd 32, 2-[6-bromo-2-(trifluoromethyl)imidazo[1,2-a]pyridin-3-yl]-N-[4-(trifluoromethyl)phenyl]pyrimidin-4-amine] | 100 to 3000 |
| CCc1nc2ncc(Cl)cc2n1-c1nc(N)cc(Nc2ccc(C(F)(F)F)cc2)n1 [Cpd 105, 2-(6-chloro-2-ethyl-1H-imidazo[4,5-b]pyridin-1-yl)-N-[4-(trifluoromethyl)phenyl]pyrimidine-4,6-diamine] | 10 to 100 |
| COc1ccc2nc(C(F)(F)F)c(-c3nccc(Nc4ccc(OC(F)(F)F)cc4)n3)n2c1 [Cpd 49, 2-[6-methoxy-2-(trifluoromethyl)imidazo[1,2-a]pyridin-3-yl]-N-[4-(trifluoromethoxy)phenyl]pyrimidin-4-amine] | 100 to 3000 |
| Cc1nc2cc(Cl)ccc2n1-c1nc(N)cc(Nc2ccc(OC(F)F)cc2)n1 [Cpd 99, 2-(5-chloro-2-methyl-1H-benzimidazol-1-yl)-N-[4-(difluoromethoxy)phenyl]pyrimidine-4,6-diamine] | 100 to 3000 |
